Reference: ChEMBL document CHEMBL5653631, “A Potent and Selective ULK1 Inhibitor Suppresses Autophagy and Sensitizes Cancer Cells to Nutrient Stress” (iScience, 2018)
Values belong to the compound of their own block, whether it stands above or below them.

How the values were obtained:
[1] = molecular target: Cyclin-dependent kinase 12 (Homo sapiens) (UniProt Q9NYV4); experiment: Inhibition of human recombinant CRK7 at 500 nM related to control ULK1
[2] = molecular target: Cyclin-dependent kinase 6 (Homo sapiens) (UniProt Q00534); experiment: Inhibition of human recombinant CDK6 at 500 nM related to control ULK1
[3] = molecular target: Serine/threonine-protein kinase PLK1 (Homo sapiens) (UniProt P53350); experiment: Inhibition of human recombinant PLK1 at 15 nM in presence of ATP by radiometric assay relative to control
[4] = molecular target: T1, Serine/threonine-protein kinase TAO1 (Homo sapiens) (UniProt Q7L7X3); experiment: Inhibition of human recombinant TAO1 at 15 nM in presence of ATP by radiometric assay relative to control
T1 sequence (whole entry): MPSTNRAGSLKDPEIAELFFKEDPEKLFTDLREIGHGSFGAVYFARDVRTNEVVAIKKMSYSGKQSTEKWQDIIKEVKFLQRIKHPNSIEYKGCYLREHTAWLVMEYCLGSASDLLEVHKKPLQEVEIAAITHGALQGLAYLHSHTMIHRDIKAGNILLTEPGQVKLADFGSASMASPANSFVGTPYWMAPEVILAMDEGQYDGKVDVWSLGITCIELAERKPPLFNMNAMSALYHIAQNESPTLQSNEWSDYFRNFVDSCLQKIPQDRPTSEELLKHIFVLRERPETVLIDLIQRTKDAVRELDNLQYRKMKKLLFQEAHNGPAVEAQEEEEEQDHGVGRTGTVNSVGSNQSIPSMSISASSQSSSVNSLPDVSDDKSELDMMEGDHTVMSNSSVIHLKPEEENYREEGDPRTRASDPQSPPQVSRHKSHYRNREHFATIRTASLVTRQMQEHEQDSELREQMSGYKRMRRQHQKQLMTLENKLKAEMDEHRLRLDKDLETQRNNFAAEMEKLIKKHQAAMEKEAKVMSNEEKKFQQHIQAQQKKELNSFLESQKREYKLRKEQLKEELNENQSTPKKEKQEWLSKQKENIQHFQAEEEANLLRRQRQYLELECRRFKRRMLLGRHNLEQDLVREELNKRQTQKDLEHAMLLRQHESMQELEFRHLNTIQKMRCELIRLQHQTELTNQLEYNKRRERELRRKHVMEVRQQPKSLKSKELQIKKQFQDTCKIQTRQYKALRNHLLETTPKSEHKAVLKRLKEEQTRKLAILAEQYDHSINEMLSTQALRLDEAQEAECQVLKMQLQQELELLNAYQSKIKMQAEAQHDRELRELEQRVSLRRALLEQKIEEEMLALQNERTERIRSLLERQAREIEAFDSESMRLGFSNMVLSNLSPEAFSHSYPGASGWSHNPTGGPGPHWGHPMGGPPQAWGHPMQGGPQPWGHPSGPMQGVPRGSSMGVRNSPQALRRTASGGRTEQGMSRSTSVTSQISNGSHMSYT

[5] = molecular target: Ribosomal protein S6 kinase alpha-6 (Homo sapiens) (UniProt Q9UK32); experiment: Inhibition of human recombinant RSK4 at 15 nM in presence of ATP by radiometric assay relative to control
[6] = molecular target: Mitogen-activated protein kinase 9 (Homo sapiens) (UniProt P45984); experiment: Inhibition of human recombinant JNK2 at 15 nM related to control ULK1
[7] = molecular target: Serine/threonine-protein kinase 24 (Homo sapiens) (UniProt Q9Y6E0); experiment: Inhibition of human recombinant MST3 at 15 nM in presence of ATP by radiometric assay relative to control
[8] = molecular target: Serine/threonine-protein kinase tousled-like 2 (Homo sapiens) (UniProt Q86UE8); experiment: Inhibition of human recombinant TLK2 at 15 nM related to control ULK1
[9] = molecular target: T2, Tyrosine-protein kinase ITK/TSK (Homo sapiens) (UniProt Q08881); experiment: Inhibition of human recombinant ITK at 15 nM in presence of ATP by radiometric assay relative to control
T2 sequence (whole entry): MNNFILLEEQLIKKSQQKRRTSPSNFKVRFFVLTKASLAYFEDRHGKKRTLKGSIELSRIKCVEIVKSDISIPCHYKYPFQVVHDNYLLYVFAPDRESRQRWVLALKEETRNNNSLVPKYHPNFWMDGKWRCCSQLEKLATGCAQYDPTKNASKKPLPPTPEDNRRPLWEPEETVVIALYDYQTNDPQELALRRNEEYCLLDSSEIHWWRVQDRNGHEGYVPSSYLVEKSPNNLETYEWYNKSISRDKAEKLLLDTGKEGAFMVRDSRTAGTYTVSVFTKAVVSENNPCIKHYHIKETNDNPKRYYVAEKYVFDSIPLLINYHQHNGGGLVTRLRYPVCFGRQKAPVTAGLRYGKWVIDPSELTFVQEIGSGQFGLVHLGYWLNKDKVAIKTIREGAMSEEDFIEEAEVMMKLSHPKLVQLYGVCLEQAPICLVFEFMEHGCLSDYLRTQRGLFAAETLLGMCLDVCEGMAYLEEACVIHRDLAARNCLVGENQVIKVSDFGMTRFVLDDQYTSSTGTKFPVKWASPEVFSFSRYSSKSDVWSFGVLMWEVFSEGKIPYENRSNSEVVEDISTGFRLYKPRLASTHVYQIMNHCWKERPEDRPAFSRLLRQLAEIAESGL

[10] = molecular target: Protein kinase C eta type (Homo sapiens) (UniProt P24723); experiment: Inhibition of human recombinant PKCH at 40 nM in presence of ATP by radiometric assay relative to control
[11] = molecular target: Serine/threonine-protein kinase PAK 4 (Homo sapiens) (UniProt O96013); experiment: Inhibition of human recombinant PAK4 at 40 nM related to control ULK1
[12] = molecular target: T3, MAPK/MAK/MRK overlapping kinase (Homo sapiens) (UniProt Q9UQ07); experiment: Inhibition of human recombinant MOK at 40 nM in presence of ATP by radiometric assay relative to control
T3 sequence (whole entry): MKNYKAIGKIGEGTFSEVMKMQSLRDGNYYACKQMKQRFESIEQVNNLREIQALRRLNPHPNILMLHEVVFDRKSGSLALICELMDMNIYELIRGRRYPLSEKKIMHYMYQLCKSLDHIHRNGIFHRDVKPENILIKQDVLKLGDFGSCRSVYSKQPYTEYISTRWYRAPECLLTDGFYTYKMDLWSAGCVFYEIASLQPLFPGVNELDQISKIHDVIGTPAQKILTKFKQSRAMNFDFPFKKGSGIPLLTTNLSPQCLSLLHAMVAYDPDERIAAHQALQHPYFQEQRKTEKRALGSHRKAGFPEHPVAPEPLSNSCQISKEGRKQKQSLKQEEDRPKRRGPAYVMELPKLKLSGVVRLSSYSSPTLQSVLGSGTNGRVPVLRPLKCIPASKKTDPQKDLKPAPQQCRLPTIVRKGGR

[13] = molecular target: Epithelial discoidin domain-containing receptor 1 (Homo sapiens) (UniProt Q08345); experiment: Inhibition of human recombinant DDR1 at 40 nM in presence of ATP by radiometric assay relative to control
[14] = molecular target: Serine/threonine-protein kinase 33 (Homo sapiens) (UniProt Q9BYT3); experiment: Inhibition of human recombinant STK33 at 40 nM in presence of ATP by radiometric assay relative to control

Cyclin-dependent kinase 6 (Homo sapiens), sequence (Q00534 whole entry): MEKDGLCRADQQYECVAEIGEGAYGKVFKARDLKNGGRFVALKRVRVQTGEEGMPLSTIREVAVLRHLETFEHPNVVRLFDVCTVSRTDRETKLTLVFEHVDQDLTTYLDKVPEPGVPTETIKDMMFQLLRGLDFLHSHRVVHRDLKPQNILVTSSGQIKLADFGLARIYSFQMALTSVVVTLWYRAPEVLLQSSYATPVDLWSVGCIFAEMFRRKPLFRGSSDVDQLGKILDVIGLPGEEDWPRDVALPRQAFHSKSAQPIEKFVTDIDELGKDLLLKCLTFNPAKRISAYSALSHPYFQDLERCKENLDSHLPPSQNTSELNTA
Mitogen-activated protein kinase 9 (Homo sapiens), sequence (P45984 whole entry, looked up): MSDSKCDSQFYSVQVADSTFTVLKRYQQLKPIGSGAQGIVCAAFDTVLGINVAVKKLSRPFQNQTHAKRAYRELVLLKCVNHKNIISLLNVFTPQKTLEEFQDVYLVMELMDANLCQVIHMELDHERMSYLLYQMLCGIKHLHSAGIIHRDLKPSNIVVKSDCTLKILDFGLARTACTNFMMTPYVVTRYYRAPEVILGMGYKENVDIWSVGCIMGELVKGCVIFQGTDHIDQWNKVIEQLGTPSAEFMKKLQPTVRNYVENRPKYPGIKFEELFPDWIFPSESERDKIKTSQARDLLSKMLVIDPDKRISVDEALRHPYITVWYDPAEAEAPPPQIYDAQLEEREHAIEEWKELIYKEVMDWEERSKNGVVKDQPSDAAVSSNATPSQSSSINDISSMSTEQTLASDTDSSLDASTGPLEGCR
Protein kinase C eta type (Homo sapiens), sequence (P24723 whole entry): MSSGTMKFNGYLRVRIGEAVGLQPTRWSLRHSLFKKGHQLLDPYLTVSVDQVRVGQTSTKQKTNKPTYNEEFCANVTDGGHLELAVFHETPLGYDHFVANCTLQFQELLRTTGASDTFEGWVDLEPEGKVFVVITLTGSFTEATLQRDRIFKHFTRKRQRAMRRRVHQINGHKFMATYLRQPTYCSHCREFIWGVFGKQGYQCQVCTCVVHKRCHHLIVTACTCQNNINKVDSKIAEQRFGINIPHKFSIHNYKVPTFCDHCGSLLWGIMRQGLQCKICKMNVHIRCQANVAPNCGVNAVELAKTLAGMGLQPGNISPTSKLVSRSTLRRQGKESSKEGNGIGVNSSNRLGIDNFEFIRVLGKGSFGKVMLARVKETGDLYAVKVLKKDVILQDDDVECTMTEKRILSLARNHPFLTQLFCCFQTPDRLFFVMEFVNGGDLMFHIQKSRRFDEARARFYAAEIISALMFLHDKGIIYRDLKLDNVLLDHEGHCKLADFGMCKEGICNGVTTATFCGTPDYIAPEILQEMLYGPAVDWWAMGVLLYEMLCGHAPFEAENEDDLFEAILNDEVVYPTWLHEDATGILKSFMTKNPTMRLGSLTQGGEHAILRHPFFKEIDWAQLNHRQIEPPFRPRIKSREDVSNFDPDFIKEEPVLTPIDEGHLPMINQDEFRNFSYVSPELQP
Cyclin-dependent kinase 12 (Homo sapiens), sequence (Q9NYV4 whole entry, looked up): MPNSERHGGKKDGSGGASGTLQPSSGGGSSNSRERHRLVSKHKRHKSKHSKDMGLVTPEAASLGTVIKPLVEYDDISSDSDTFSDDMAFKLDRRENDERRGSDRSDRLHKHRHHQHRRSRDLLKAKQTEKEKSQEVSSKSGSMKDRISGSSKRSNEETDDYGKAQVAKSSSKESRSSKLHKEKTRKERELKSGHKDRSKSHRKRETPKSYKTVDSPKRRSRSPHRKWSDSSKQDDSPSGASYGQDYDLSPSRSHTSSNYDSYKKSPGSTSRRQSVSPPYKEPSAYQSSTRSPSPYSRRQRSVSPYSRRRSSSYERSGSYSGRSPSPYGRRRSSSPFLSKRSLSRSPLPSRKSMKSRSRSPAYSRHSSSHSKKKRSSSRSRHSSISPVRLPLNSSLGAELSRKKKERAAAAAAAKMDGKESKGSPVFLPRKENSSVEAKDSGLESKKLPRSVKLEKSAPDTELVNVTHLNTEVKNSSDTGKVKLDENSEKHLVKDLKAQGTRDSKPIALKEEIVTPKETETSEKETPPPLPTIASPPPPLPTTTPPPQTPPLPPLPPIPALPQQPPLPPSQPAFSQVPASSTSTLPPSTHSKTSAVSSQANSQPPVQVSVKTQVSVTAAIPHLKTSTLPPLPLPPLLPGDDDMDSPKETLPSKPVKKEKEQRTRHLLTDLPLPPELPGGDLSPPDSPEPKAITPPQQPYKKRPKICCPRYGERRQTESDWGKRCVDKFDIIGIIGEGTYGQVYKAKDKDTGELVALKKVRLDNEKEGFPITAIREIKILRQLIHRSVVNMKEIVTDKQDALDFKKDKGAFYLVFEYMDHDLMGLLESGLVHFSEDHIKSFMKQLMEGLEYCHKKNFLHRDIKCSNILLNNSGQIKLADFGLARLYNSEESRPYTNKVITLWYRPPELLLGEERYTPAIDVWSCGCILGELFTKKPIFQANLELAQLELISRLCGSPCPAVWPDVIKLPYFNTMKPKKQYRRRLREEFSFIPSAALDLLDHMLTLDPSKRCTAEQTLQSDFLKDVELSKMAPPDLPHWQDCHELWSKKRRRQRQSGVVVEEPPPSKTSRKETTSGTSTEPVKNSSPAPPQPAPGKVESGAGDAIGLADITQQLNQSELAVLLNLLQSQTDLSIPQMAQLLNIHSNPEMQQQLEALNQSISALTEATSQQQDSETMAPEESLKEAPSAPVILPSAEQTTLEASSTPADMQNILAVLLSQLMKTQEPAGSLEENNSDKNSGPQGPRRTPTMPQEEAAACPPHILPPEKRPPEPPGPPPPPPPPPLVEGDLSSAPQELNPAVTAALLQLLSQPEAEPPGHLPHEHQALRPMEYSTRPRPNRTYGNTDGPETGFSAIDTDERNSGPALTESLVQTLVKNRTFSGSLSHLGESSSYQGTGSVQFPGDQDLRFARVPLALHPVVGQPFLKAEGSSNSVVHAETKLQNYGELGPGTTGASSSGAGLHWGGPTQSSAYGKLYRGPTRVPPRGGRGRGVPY
Ribosomal protein S6 kinase alpha-6 (Homo sapiens), sequence (Q9UK32 whole entry): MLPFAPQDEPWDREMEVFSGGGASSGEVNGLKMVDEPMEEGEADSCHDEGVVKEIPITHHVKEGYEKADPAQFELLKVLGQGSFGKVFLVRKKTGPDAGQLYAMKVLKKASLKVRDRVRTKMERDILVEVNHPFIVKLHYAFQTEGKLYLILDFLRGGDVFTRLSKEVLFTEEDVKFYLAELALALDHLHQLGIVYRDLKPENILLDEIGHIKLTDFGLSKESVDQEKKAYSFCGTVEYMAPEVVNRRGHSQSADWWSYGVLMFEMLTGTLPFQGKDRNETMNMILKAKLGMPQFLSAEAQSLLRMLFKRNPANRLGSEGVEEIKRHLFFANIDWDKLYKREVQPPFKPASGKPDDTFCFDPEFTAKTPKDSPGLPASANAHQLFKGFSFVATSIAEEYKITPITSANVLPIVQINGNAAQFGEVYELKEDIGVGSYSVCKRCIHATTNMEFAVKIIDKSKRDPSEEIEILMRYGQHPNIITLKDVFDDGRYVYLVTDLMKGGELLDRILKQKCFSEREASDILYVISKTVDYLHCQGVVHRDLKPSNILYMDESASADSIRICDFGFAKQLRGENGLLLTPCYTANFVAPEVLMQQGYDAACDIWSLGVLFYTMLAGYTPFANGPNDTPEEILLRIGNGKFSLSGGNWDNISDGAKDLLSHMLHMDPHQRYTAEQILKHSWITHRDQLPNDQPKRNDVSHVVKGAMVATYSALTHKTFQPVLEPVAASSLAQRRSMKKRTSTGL
Serine/threonine-protein kinase PAK 4 (Homo sapiens), sequence (O96013 whole entry, looked up): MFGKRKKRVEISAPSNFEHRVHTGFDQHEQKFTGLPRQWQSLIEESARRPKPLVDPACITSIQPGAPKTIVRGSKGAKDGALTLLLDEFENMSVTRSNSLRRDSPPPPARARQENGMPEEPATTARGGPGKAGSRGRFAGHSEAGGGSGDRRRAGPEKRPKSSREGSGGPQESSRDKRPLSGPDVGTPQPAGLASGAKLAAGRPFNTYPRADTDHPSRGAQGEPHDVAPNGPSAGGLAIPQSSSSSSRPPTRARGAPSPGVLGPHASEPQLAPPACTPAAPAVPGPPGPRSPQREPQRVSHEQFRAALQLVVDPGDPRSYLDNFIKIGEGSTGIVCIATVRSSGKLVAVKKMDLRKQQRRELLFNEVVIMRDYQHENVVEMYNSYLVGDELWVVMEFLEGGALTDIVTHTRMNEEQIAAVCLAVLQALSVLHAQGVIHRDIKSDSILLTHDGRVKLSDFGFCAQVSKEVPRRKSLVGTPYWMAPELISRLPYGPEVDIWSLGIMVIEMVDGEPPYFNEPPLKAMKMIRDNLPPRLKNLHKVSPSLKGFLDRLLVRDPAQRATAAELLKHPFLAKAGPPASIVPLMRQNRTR
Serine/threonine-protein kinase 24 (Homo sapiens), sequence (Q9Y6E0 whole entry, looked up): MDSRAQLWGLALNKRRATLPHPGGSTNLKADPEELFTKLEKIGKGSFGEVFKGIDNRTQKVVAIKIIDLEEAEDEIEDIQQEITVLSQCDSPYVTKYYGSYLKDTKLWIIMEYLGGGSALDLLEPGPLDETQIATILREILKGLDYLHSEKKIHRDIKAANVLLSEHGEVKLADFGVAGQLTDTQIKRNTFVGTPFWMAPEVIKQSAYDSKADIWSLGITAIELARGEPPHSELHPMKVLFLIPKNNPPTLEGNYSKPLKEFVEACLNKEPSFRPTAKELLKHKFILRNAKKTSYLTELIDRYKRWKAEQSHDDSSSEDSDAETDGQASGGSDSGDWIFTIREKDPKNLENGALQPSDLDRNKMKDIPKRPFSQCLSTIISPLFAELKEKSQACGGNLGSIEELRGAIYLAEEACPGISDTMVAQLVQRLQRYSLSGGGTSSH

fold change (FC) [1]: 0 | fold change (FC) [2]: 0
SMILES: CNC(=O)c1ccccc1Oc1nc(Nc2cc(OC)c(OC)c(OC)c2)ncc1Br

inhibition [3]: 1% | inhibition [4]: 0% | inhibition [5]: 0% | fold change (FC) [6]: 0 | inhibition [7]: 0% | fold change (FC) [8]: 0.03 | inhibition [9]: 4%
SMILES: CC(C)[C@H](NC(=O)c1cc(-c2cnn3cc(-c4ccc(OCCN5CCCCC5)cc4)cnc23)cs1)C(F)(F)F

inhibition [10]: 0% | fold change (FC) [11]: 0.11 | inhibition [12]: 0% | inhibition [13]: 18% | inhibition [14]: 19%
SMILES: O=C(N[C@@H](C1CC1)C(F)(F)F)c1cc(-c2cnn3cc(-c4ccc(F)cc4)cnc23)cs1
